{"source": "patent US20050058745A1", "about": "“Use of Labiatae herb preparations for extending the flavor shelf life of malt beverages” (priority 2003, published 2005)", "key": {"[1]": {"experiment": "Trained panel flavor evaluation, commercial Pilsener, forced aging", "description": "Separate solutions containing 2% pure rosmarinic acid or pure carnosic acid were prepared by weighing out 500 mg of each compound into separate volumetric flasks and diluting to 25 mL with 100% EtOH.\nThe beer used in this study was purchased at a local market with a production date of 36 days prior to use. Bottle additions were done as follows: • 1. A bottle of the beer was opened, struck sharply on the top to induce foaming (called “fobbing”), and crowned. The fobbing excludes air. The bottle was swirled and inverted. This sample was designated “No Additions.” • 2. Bottles of beer were opened and an aliquot of either the rosmarinic acid or carnosic acid solutions or a combination of each was added in an amount to give the correct addition rate. The bottle was then fobbed, as above and crowned. It was then swirled and inverted. The samples were designated appropriately to reflect the additive and concentration.\nThe bottles were placed in a heated room at 40±1° C. in the dark for varying amounts of time. After the allotted aging time, the bottles of beer were transferred to a dark refrigerator and stored at approximately 2° to 4° C. until they were analyzed. Additional bottles from the same code were kept unopened in 2° to 4° C. storage. These unopened samples from the same beer code were labeled “Fresh Control” used to provide fresh samples for the trained panel.\nAt the appropriate times, a trained 7- or 8-member panel evaluated the beers. In the first study panels, the fresh sample was not identified. Members rated beers for nine attributes that are characteristic for beer: Malt, Yeast, Estery, Hops, Sweet, Stale/Oxidized, Sour/Acid, Solvent (Chemical), and Bitterness. The panel never evaluated more than four beers at a session. The ratings are shown below."}, "[2]": {"experiment": "DCIP redox potential of the beer of Example 1, with added air", "assay_type": "physicochemical", "details": "20 ppm CA, Plus Air", "description": "A 10 mg/mL solution of carnosic acid was prepared by taking 250 mg of 100% pure crystal by HPLC and diluting to a total volume of 25 mL with ethanol.\nThe bottle dosing process from Example 1 was modified to allow for the inclusion of air. • A bottle of the beer was opened, struck sharply on the top to induce foaming (called “fobbing”), and crowned. The fobbing excludes air. The bottle was swirled and inverted. This sample was designated No CA, No Air. • A bottle was opened and dosed with 7.1 mg of CA (20 ppm) to a 12 oz bottle from 710 μL of the above solution. After addition we gave the headspace two puffs of air, from a 25 mL squeeze bulb. The bottle was crowned, swirled and inverted without fobbing. […]\nA standard solution of […] sodium salt (DCIP) at a concentration of 145 mg/dL was prepared by the method described in Methodensammlung der Mitteleuropäischen Brautechnischene Analösen Kommission, Vierte Ausgabe 2002, Editor Prof. […] The concentration of DCIP in mg/dL was measured by multiplying the mL of titer by 14.5. […]\nThe beers were stored in a 39° C. box for 14 days. […] The beers to be analyzed (the four treatments above) were degassed by centrifuging at 6,000 rpm for 15 min. […] Some of the degassed beer was poured to fill a 1 cm cuvette and placed in a spectrophotometer set to record the absorbance at 520 nm. […]\nThe “Redox Potential” was calculated by using the formula: [formula]"}, "[3]": {"experiment": "HPLC cis/trans ratio of isohumulone in beer stored at 40° C.", "assay_type": "physicochemical", "details": "for Cis/Trans Ratio of Isohumulone: 20 ppm of each constituent", "description": "One case of bottles was opened, 20 ppm carnosic acid and 20 ppm rosmarinic acid in the form of a propylene glycol solution was added and the bottles fobbed and crowned according to the procedure detailed in Example 1. An additional case was opened, fobbed and crowned in the same manner, and designated “Control”. All bottles were put in a 40° C. temperature controlled hot room. Samples of the above beer were taken at 0 time, 7, 21, 35, 44 and 58 days for HPLC hop acid analysis by a modification of the method of Burroughs and Williams [1999]. Beer samples (100 mL) were gently poured into tall-form beakers to avoid excessive foaming. Octanol (1-2 drops) was added to minimize foam, and the beer was sparged with helium for 10-15 minutes to degas them. The degased beer was transferred to a 2 mL autosampler vial and assayed according to the method in the reference.\nThe level of trans declines faster than the level of cis isomers. The trans isomers in this example are 28% of the total hop acids."}, "[4]": {"experiment": "Flavor stability of flavored malt beverage", "details": "10 ppm CA and 5 ppm CN; 10 ppm RA", "description": "To a flavored malt beverage 10 ppm CA and 5 ppm CN, is added, and the beverage aged. To the same beverage, 10 ppm RA is added. […] When RA is added to the CA and or CN, an improvement is observed."}, "[5]": {"experiment": "Stability of RA in 9.5% tetrahydroisohumulone solution at pH 8", "assay_type": "physicochemical", "details": "pH 8, room temperature", "description": "A solution of rosmarinic acid in 9.5% tetrahydroisohumulone at pH 8 was prepared and allowed to stand at room temperature for an extended period of time to determine stability."}}, "note": "“Also recorded” adds a separate entry of the source.", "data": [{"smiles": "CC(C)c1cc2c(c(O)c1O)[C@@]1(C(=O)O)CCCC(C)(C)[C@@H]1CC2", "note": "[CA, carnosic acid]", "values": [{"measurement": "ranking (normalized sum of preference, 1 most preferred, 4 least preferred)", "setting": "[1]; 5 ppm CA, 1 week 40° C.", "value": 2.6}, {"measurement": "ranking (normalized sum of preference, 1 most preferred, 4 least preferred)", "setting": "[1]; 10 ppm CA, 1 week 40° C.", "value": 2.4}, {"measurement": "ranking (normalized sum of preference, 1 most preferred, 4 least preferred)", "setting": "[1]; 20 ppm CA, 1 week 40° C.", "value": 2.3}, {"measurement": "ranking (normalized sum of preference, 1 most preferred, 4 least preferred)", "setting": "[1]; 20 ppm CA, 2 weeks 40° C.", "value": 2.1}, {"measurement": "Redox Initial", "setting": "[2]", "value": 37.0}, {"measurement": "Redox After 14 Days", "setting": "[2]; 39° C.", "value": 33.8}, {"measurement": "time up to which the cis/trans level was helped to be maintained", "setting": "[3]; 20 ppm CA, 40° C.", "value": "about 35 days"}, {"measurement": "Cis/Trans Ratio of Isohumulone", "setting": "[3]; Day 0, 40° C.", "value": 2.699}, {"measurement": "Cis/Trans Ratio of Isohumulone", "setting": "[3]; Day 7, 40° C.", "value": 2.850}, {"measurement": "Cis/Trans Ratio of Isohumulone", "setting": "[3]; Day 21, 40° C.", "value": 3.947}, {"measurement": "Cis/Trans Ratio of Isohumulone", "setting": "[3]; Day 35, 40° C.", "value": 5.450}, {"measurement": "Cis/Trans Ratio of Isohumulone", "setting": "[3]; Day 44, 40° C.", "value": 7.974}, {"measurement": "Cis/Trans Ratio of Isohumulone", "setting": "[3]; Day 58, 40° C.", "value": 9.863}]}, {"smiles": "O=C(/C=C/c1ccc(O)c(O)c1)O[C@H](Cc1ccc(O)c(O)c1)C(=O)O", "note": "[RA, rosmarinic acid]", "values": [{"measurement": "flavor stability of aged flavored malt beverage", "setting": "[4]", "value": "only slightly better than the control"}, {"measurement": "% Rosmarinic Acid in Solution", "setting": "[5]; 0 days", "value": 12.07, "unit": "%"}, {"measurement": "% Rosmarinic Acid in Solution", "setting": "[5]; 3 days", "value": 12.45, "unit": "%"}, {"measurement": "% Rosmarinic Acid in Solution", "setting": "[5]; 5 days", "value": 12.40, "unit": "%"}, {"measurement": "% Rosmarinic Acid in Solution", "setting": "[5]; 15 days", "value": 12.12, "unit": "%"}, {"measurement": "% Rosmarinic Acid in Solution", "setting": "[5]; 38 days", "value": 11.36, "unit": "%"}, {"measurement": "% Rosmarinic Acid in Solution", "setting": "[5]; 54 days", "value": 11.74, "unit": "%"}, {"measurement": "% Rosmarinic Acid in Solution", "setting": "[5]; 86 days", "value": 10.88, "unit": "%"}, {"measurement": "stability in hop acid solution", "setting": "[5]", "value": "stable in this formulation for at least three months; also recorded: very stable in the hop acid solution"}]}]}
